One may read the IC50 as the concentration that gives 50% inhibition.

Consider 27 molecules from patent US12139471B2, “NLRP3 inflammasome inhibitors” (Novartis AG, priority 2019, dated 2024).

Structures can show the parent of a compound that is named as a salt.

In one assay the target is T1, NLRP3 inflammasome (Homo sapiens, UniProt Q96P20).
T1 construct: host or cells: THP-1 cells, PMA-differentiated
T1 sequence (Q96P20 whole entry): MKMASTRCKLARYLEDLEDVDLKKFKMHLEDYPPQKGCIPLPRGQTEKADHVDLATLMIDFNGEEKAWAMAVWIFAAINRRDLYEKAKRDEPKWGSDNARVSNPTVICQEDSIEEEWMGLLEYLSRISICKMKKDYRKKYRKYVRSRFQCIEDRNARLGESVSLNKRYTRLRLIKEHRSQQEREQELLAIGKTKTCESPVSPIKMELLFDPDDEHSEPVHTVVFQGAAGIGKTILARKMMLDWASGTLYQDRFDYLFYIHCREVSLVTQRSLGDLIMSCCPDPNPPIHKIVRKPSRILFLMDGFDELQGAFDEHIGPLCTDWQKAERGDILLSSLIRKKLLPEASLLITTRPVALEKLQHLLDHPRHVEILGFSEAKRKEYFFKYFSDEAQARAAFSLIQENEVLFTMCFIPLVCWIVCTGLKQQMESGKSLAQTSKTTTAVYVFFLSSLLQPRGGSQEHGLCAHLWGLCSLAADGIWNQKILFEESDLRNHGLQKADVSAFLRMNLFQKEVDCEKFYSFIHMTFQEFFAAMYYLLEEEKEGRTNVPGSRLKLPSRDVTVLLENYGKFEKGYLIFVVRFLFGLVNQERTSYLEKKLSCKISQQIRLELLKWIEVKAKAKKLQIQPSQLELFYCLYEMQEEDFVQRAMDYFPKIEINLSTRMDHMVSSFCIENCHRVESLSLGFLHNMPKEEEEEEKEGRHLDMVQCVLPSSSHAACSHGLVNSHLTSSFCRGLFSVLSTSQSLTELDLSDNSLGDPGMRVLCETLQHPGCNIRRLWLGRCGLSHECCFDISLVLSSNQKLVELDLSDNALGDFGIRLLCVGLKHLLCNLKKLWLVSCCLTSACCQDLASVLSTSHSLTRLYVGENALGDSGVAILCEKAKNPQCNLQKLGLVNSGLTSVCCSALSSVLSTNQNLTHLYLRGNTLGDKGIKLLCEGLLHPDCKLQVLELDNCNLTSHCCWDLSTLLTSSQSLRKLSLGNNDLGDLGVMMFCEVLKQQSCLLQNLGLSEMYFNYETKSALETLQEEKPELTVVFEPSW
Nature of the assay: IL-1β secretion assay (nigericin-activated, PMA-differentiated THP-1 cells, HTRF). Format: cell-based. As to conditions: PMA-differentiated THP-1 cells; compound 1 hour, then 15 μM nigericin, 3 hours; IL-1β by HTRF; read-out: IL-1β IC50. The method, then: 10 μL supernatant was removed, and IL-1β levels were monitored using an HTRF assay (CisBio, #62IL1PEC) according to manufacturers' instructions. Viability and pyroptosis was monitored with the addition of PrestoBlue cell viability reagent (Life Technologies, #A13261) directly to the cell culture plate.
IC50 values were calculated from the plot of percentage of inhibition versus the inhibitor concentration by a logistics fit according to: y=A2+(A1−A2)/(1+(x/IC50)^p) where y is the %-inhibition at the inhibitor concentration, x. A1 is the lowest inhibition value, i.e. 0%, and A2 the maximum inhibition value, i.e. 100%. The exponent, p, is the Hill coefficient. The curve fitting was conducted with an internally developed software suite.
NLRP3-dependent IL-1β secretion was stimulated in PMA-differentiated THP-1 cells by the addition of nigericin, and cytokines were measured in the […] after 3 hours. As discussed above, activation of the NLRP3 inflammasome requires both an NF-kB-dependent priming step and the addition of a NLRP3 activator.
For the molecule `Cc1cc(C(F)(F)F)cc(O)c1-c1ccc(NCC(C)(C)N)nn1` [Ex 29, 2-(6-((2-Amino-2-methylpropyl)amino)pyridazin-3-yl)-3-methyl-5-(trifluoromethyl)phenol], the half-maximal inhibitory concentration (IC50) was found to be 0.169 µM.
The same measure, in the same setting: the result for `Cc1cc(C(F)(F)F)cc(O)c1-c1ccc(NC[C@H]2CCCCN2)nn1` [Ex 20, (R)-3-Methyl-2-(6-((piperidin-2-ylmethyl)amino)pyridazin-3-yl)-5-(trifluoromethyl)phenol] reads 0.0823 µM; that for `Cc1cc(C(F)(F)F)cc(O)c1-c1ccc(N[C@@H]2CCC[C@@H](O)C2)nn1` [Ex 58, 2-(6-(((1R,3R)-3-Hydroxycyclohexyl)amino)pyridazin-3-yl)-3-methyl-5-(trifluoromethyl)phenol], 0.0584 µM.
As for `Cc1cc(C(F)(F)F)cc(O)c1-c1ccc(NC[C@@](C)(O)CO)nn1` (single isomer, unassigned) [Ex 88b], the IC50 was found to be 0.0605 µM.
Same read-out and setting: the result for `Cc1cc(C(F)(F)F)cc(O)c1-c1ccc(NC[C@@H]2CCCCN2CCO)nn1` (single isomer, unassigned) [Ex 84b] reads 0.0533 µM; that for `Cc1ncccc1CNc1ccc(-c2c(O)cc(Cl)cc2C(F)(F)F)nn1` [Ex 35, 5-Chloro-2-(6-(((2-methylpyridin-3-yl)methyl)amino)pyridazin-3-yl)-3-(trifluoromethyl)phenol], 0.243 µM.
On the same count and under the same terms, the result for `Cc1cc(C)c(-c2ccc(NCCc3ccc(S(N)(=O)=O)cc3)nn2)c(O)c1` [Ex 103, 4-(2-((6-(2-Hydroxy-4,6-dimethylphenyl)pyridazin-3-yl)amino)ethyl)benzenesulfonamide] reads 0.136 µM; that for `Cc1cc(-c2c(C)cc(C(F)(F)F)cc2O)nnc1NCC(C)(C)O` [Ex 72, 2-(6-((2-Hydroxy-2-methylpropyl)amino)-5-methylpyridazin-3-yl)-3-methyl-5-(trifluoromethyl)phenol], 0.0449 µM.
With `CC(C)(O)CNc1ccc(-c2c(O)cc(C(F)(F)F)cc2Cl)nn1` [Ex 30, 3-Chloro-2-(6-((2-hydroxy-2-methylpropyl)amino)pyridazin-3-yl)-5-(trifluoromethyl)phenol], the IC50 stood at 0.214 µM.
As to `Cc1cc(C(F)(F)F)cc(O)c1-c1cc(C(F)(F)F)c(N[C@H]2C[C@@](C)(O)C2)nn1` [Ex 56, 2-(6-(((cis)-3-Hydroxy-3-methylcyclobutyl)amino)-5-(trifluoromethyl)pyridazin-3-yl)-3-methyl-5-(trifluoromethyl)phenol], the IC50 turned out to be 0.0083 µM.
With `Cc1cc(C(F)(F)F)cc(O)c1-c1ccc(NC[C@](C)(O)CO)nn1` (single isomer, unassigned) [Ex 88a], the IC50 is 0.0623 µM.
Still for that read-out and setting: the result for `Cc1cc(C(F)(F)F)cc(O)c1-c1ccc(NC[C@@H](O)C(C)C)nn1` (single isomer, unassigned) [Ex 90a] reads 0.0642 µM.
Consider `Cc1cc(C(F)(F)F)cc(O)c1-c1ccc(NC2CCC3CCC2N3CCO)nn1` (single isomer, unassigned) [Ex 86a], for which the IC50 was 0.175 µM.
The same measure, in the same setting: the result for `Cc1cc(C(F)(F)F)cc(O)c1-c1ccc(N[C@@H]2CCC[C@H]2O)nn1` (relative stereo) [Ex 24, (trans)-2-(6-((2-Hydroxycyclopentyl)amino)pyridazin-3-yl)-3-methyl-5-(trifluoromethyl)phenol] reads 0.12 µM; that for `Cc1cc(C(F)(F)F)cc(O)c1-c1ccc(NCC(C)(C)N(C)C)nn1` [Ex 16, 2-(6-((2-(Dimethylamino)-2-methylpropyl)amino)pyridazin-3-yl)-3-methyl-5-(trifluoromethyl)phenol], 0.0363 µM; that for `C[C@]1(O)C[C@@H](Nc2cc(C(F)(F)F)c(-c3ccc(C(F)(F)F)cc3O)nn2)C1` [Ex 66, 2-(6-(((cis)-3-Hydroxy-3-methylcyclobutyl)amino)-4-(trifluoromethyl)pyridazin-3-yl)-5-(trifluoromethyl)phenol], 0.187 µM.
Still for that read-out and setting: the result for `Oc1cc(C(F)(F)F)cc(Cl)c1-c1ccc(N[C@H]2C[C@@H](O)C2)nn1` [Ex 31, 3-Chloro-2-(6-((cis-3-hydroxycyclobutyl)amino)pyridazin-3-yl)-5-(trifluoromethyl)phenol] reads 0.167 µM.
Still for that read-out and setting: the result for `Cc1cc(C(F)(F)F)cc(O)c1-c1ccc(N[C@H]2CCCN3CCC[C@@H]23)nn1` (single isomer, unassigned) [Ex 83b] reads 0.0694 µM; that for `Cc1cc(C(F)(F)F)cc(O)c1-c1ccc(N[C@H]2C[C@](O)(C(F)(F)F)C2)nn1` [Ex 67, 2-(6-(((cis)-3-Hydroxy-3-(trifluoromethyl)cyclobutyl)amino)pyridazin-3-yl)-3-methyl-5-(trifluoromethyl)phenol], 0.0401 µM.
For `Cc1cc(C(F)(F)F)cc(O)c1-c1ccc(Nc2cncnc2)nn1` [Ex 43, 3-Methyl-2-(6-(pyrimidin-5-ylamino)pyridazin-3-yl)-5-(trifluoromethyl)phenol], the IC50 came out at 0.281 µM.
Still for that read-out and setting: the result for “(3R)-3-((6-(2-Hydroxy-6-methyl-4-(trifluoromethyl)phenyl)-4-methylpyridazin-3-ylamino)-1-methylpiperidine 1-oxide TFA-salt [Ex 104]” reads 0.059 µM; that for `Cc1cc(C(F)(F)F)cc(O)c1-c1ccc(NC2CCC3CCC2N3C)nn1` (single isomer, unassigned) [Ex 85a], 0.148 µM; that for `Cc1cc(C(F)(F)F)cc(O)c1-c1ccc(NC[C@H]2CCCCN2CCO)nn1` (single isomer, unassigned) [Ex 84a], 0.0425 µM.
Still for that read-out and setting: the result for `Cc1cc(C(F)(F)F)cc(O)c1-c1ccc(NC[C@](C)(O)C(F)(F)F)nn1` [Ex 78, (S)-3-Methyl-2-(6-((3,3,3-trifluoro-2-hydroxy-2-methylpropyl)amino)pyridazin-3-yl)-5-(trifluoromethyl)phenol HCl-salt] reads 0.198 µM; that for `Cc1cc(C(F)(F)F)cc(O)c1-c1ccc(NC[C@@H]2C[C@H](F)CN2)nn1` [Ex 75, 2-(6-((((2S,4S)-4-Fluoropyrrolidin-2-yl)methyl)amino)pyridazin-3-yl)-3-methyl-5-(trifluoromethyl)phenol], 0.0183 µM; that for `Cc1cc(C(F)(F)F)cc(O)c1-c1ccc(NCC2COCCN2C)nn1` (racemic) [Ex 77, (rac)-3-Methyl-2-(6-(((4-methylmorpholin-3-yl)methyl)amino)pyridazin-3-yl)-5-(trifluoromethyl)phenol], 0.0619 µM.
`Cc1cc(N[C@H]2C[C@@](C)(O)C2)nnc1-c1ccc(OC(F)(F)F)cc1O` [Ex 81, 2-(6-(((cis)-3-Hydroxy-3-methylcyclobutyl)amino)-4-methylpyridazin-3-yl)-5-(trifluoromethoxy)phenol]: the IC50 is 0.13 µM.

Another assay deals with NF-kB-dependent TNF-α secretion. Briefly: TNF-α secretion assay (counter screen, THP-1 cells, HTRF). Format: cell-based. Conditions: undifferentiated THP-1 cells, Pam3CSK4-stimulated, 3 hours, TNF-α by HTRF. In general terms: The purpose of a counterscreen is to sort out artefacts and off-target activity.
Experimental: Monocytic THP-1 cells were maintained according to providers' instructions in RPMI media as described above. […] Experimental compounds were prepared and added as described above. TNF-α secretion was triggered by the addition of either 1 μg/mL LPS (Sigma, #L4391) or 100 ng/mL Pam3CSK4 (Invivogen, #tlri-pms) depending on the experiment, and cells were incubated for 3 hours. 10 μL supernatant was removed, and TNF-α levels were monitored using an HTRF assay (CisBio, #62TNFPEC) according to manufacturers' instructions. Viability was monitored as described above.
For “(3R)-3-((6-(2-Hydroxy-6-methyl-4-(trifluoromethyl)phenyl)-4-methylpyridazin-3-ylamino)-1-methylpiperidine 1-oxide TFA-salt [Ex 104]”, the IC50 was more than 100 µM.
